These results are taken from patent US20230024096A1, “BIFUNCTIONAL COMPOUNDS FOR THE TREATMENT OF CANCER” (Hoffmann-La Roche Inc., priority 2019, published 2023).

For the experiment, the target named is T1, SMARCA2 (Homo sapiens, UniProt P51531).
T1 construct: endogenous in cells; host or cells: HT1080 (CRISPR HiBiT knock-in clone, generated in house)
Put plainly: SMARCA2 HiBiT degradation assay (cellular). The experiment is classed as cell-based. The conditions noted are these: table head names A549; for DC50: 6 h incubation, HiBiT-tagged SMARCA2, luminescence read-out, read-out: HiBit A549 SMARCA2 IP (nM) 6 h; for Emax: A549, 6 h incubation, Emax = amount of residual protein remaining in the cell following compound treatment.

T1 sequence (P51531 whole entry): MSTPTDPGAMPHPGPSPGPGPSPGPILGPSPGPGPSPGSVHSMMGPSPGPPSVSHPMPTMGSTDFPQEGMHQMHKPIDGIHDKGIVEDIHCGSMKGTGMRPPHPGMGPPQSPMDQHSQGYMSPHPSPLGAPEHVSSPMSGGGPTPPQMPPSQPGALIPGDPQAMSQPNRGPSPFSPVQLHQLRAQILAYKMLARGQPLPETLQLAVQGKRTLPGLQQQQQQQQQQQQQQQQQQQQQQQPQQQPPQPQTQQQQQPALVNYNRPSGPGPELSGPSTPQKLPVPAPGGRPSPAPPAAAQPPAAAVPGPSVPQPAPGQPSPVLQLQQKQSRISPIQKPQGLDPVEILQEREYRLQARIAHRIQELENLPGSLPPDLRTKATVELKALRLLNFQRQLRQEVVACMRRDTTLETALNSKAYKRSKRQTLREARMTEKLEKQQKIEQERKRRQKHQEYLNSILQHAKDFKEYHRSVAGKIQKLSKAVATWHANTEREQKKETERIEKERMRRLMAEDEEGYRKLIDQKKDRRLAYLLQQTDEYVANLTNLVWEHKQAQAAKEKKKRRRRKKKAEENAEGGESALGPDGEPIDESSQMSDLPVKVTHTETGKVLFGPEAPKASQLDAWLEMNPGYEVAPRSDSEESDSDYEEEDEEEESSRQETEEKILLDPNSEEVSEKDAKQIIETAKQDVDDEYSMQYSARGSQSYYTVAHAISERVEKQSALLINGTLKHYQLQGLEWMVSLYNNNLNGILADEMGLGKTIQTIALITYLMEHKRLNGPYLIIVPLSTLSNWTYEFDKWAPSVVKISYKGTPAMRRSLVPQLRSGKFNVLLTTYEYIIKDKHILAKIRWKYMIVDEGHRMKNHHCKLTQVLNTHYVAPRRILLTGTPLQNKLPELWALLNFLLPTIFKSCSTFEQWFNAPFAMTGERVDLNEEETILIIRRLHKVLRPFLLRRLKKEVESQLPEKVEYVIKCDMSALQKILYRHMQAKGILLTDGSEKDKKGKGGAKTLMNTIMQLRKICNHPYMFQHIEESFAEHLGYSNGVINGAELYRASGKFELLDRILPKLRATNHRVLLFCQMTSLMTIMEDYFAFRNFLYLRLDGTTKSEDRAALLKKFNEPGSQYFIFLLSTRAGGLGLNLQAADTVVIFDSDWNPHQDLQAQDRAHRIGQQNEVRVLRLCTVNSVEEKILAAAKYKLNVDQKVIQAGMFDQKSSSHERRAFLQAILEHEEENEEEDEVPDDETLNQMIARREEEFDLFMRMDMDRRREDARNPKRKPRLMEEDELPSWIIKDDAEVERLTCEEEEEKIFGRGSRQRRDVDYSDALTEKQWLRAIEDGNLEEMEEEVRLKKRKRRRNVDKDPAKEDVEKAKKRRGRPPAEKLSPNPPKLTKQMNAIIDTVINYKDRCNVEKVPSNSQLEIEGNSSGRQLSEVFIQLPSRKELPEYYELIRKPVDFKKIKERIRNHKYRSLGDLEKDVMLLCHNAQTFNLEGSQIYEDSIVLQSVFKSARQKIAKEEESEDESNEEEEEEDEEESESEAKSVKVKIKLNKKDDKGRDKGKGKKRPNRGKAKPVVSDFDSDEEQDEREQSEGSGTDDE

Regarding `Nc1nnc(-c2ccccc2O)cc1N1CCC(C(=O)N2CC3(CCN(C(=O)CCC4CCN(c5ccc6c(c5)C(=O)N(C5CCC(=O)NC5=O)C6=O)CC4)C3)C2)(c2ccccc2)CC1` (stereo not drawn) [Example 188, 5-(4-(3-(2-(1-(3-amino-6-(2-hydroxyphenyl)pyridazin-4-yl)-4-phenylpiperidine-4-carbonyl)-2,6-diazaspiro[3.4]octan-6-yl)-3-oxopropyl)piperidin-1-yl)-2-(2,6-dioxopiperidin-3-yl)isoindoline-1,3-dione], the DC50 amounted to 193 nM and the Emax (in general, the size of the effect at its maximum, as opposed to the concentration needed) stood at 50%.

Take `Nc1nnc(-c2ccccc2O)cc1N1CC2CCC(C1)N2c1cccc(OCCN2CCN(CCC3CCN(c4ccc5c(c4)C(=O)N(C4CCC(=O)NC4=O)C5=O)CC3)CC2)c1` (racemic) [Example 34, rac-5-[4-[2-[4-[2-[3-[3-[3-amino-6-(2-hydroxyphenyl)pyridazin-4-yl]-3,8-diazabicyclo[3.2.1]octan-8-yl]phenoxy]ethyl]piperazin-1-yl]ethyl]-1-piperidyl]-2-(2,6-dioxo-3-piperidyl)isoindoline-1,3-dione]: the DC50 was 26 nM and the Emax is 24%.

Turning to `Nc1nnc(-c2ccccc2O)cc1N1CC(Oc2cccc(CN3CCN(C(=O)C4CCN(c5ccc6c(c5)C(=O)N(C5CCC(=O)NC5=O)C6=O)CC4)CC3)c2)C1` (racemic) [Example 155, rac-5-[4-[4-[[3-[1-[3-amino-6-(2-hydroxyphenyl)pyridazin-4-yl]azetidin-3-yl]oxyphenyl]methyl]piperazine-1-carbonyl]-1-piperidyl]-2-(2,6-dioxo-3-piperidyl)isoindoline-1,3-dione], the DC50 turned out to be 5 nM and the maximal effect (Emax) was 26%.

As for `Nc1nnc(-c2ccccc2O)cc1N1CC(Oc2cccc(C(=O)N3CCN(C(=O)CCCCCCCCCNc4cccc5c4C(=O)N(C4CCC(=O)NC4=O)C5=O)CC3)c2)C1` (stereo not drawn) [Example 146, 4-[[10-[4-[3-[1-[3-amino-6-(2-hydroxyphenyl)pyridazin-4-yl]azetidin-3-yl]oxybenzoyl]piperazin-1-yl]-10-oxo-decyl]amino]-2-(2,6-dioxo-3-piperidyl)isoindoline-1,3-dione], the DC50 worked out at 126 nM and the Emax was 41%.

For the compound `Nc1ccccc1-c1cc(N2CC3CCC(C2)N3c2cccc(CN3CCN(C(=O)C4CCN(c5ccc6c(c5)C(=O)N(C5CCC(=O)NC5=O)C6=O)CC4)CC3)c2)c(N)nn1` (stereo not drawn) [Example 147, 5-[4-[4-[[3-[3-[3-amino-6-(2-aminophenyl)pyridazin-4-yl]-3,8-diazabicyclo[3.2.1]octan-8-yl]phenyl]methyl]piperazine-1-carbonyl]-1-piperidyl]-2-(2,6-dioxo-3-piperidyl)isoindoline-1,3-dione], the DC50 amounted to 236 nM and the maximum response (Emax) was found to be 69%.

As to `Nc1nnc(-c2ccccc2O)cc1N1CCC(C(=O)NCC2CCN(C(=O)CC3CCN(c4ccc5c(c4)C(=O)N(C4CCC(=O)NC4=O)C5=O)CC3)CC2)(c2ccccc2)CC1` (stereo not drawn) [Example 103, 1-(3-amino-6-(2-hydroxyphenyl)pyridazin-4-yl)-N-((1-(2-(1-(2-(2,6-dioxopiperidin-3-yl)-1,3-dioxoisoindolin-5-yl)piperidin-4-yl)acetyl)piperidin-4-yl)methyl)-4-phenylpiperidine-4-carboxamide], the DC50 amounted to 104 nM and the Emax turned out to be 45%.

Take `Nc1nnc(-c2cc(F)ccc2O)cc1N1C2CCC1CN(c1cccc(OCCN3CCN(C(=O)C4CCN(c5ccc6c(c5)C(=O)N(C5CCC(=O)NC5=O)C6=O)CC4)CC3)c1)C2` (stereo not drawn) [Example 160, 5-[4-[4-[2-[3-[8-[3-amino-6-(5-fluoro-2-hydroxy-phenyl)pyridazin-4-yl]-3,8-diazabicyclo[3.2.1]octan-3-yl]phenoxy]ethyl]piperazine-1-carbonyl]-1-piperidyl]-2-(2,6-dioxo-3-piperidyl)isoindoline-1,3-dione]: the DC50 came out at 144 nM and the Emax is 74%.

For the compound `Nc1nnc(-c2ccccc2O)cc1N1CCC(CNC(=O)C2CCN(c3ccc4c(c3)C(=O)N(C3CCC(=O)NC3=O)C4=O)CC2)(c2ccccc2)CC1` (stereo not drawn) [Example 74, N-((1-(3-amino-6-(2-hydroxyphenyl)pyridazin-4-yl)-4-phenylpiperidin-4-yl)methyl)-1-(2-(2,6-dioxopiperidin-3-yl)-1,3-dioxoisoindolin-5-yl)piperidine-4-carboxamide], the DC50 came to 70 nM and the maximal response (Emax) was found to be 46%.

For `Nc1nnc(-c2ccccc2O)cc1N1CCC(C(=O)N2CCC3(CC2)CN(C(=O)CN2CCN(c4ccc(NC5CCC(=O)NC5=O)cc4)CC2)CCO3)(c2ccccc2)CC1` (stereo not drawn) [Example 173, 3-((4-(4-(2-(9-(1-(3-amino-6-(2-hydroxyphenyl)pyridazin-4-yl)-4-phenylpiperidine-4-carbonyl)-1-oxa-4,9-diazaspiro[5.5]undecan-4-yl)-2-oxoethyl)piperazin-1-yl)phenyl)amino)piperidine-2,6-dione], the DC50 worked out at 110 nM and the Emax amounted to 72%.

In the case of `Nc1nnc(-c2ccccc2O)cc1N1CC2CCC(C1)N2c1cccc(CN2CCC(C(=O)N3CCC(c4ccc(NC5CCC(=O)NC5=O)cc4)CC3)CC2)c1` (racemic) [Example 93, rac-3-[4-[1-[1-[[3-[3-[3-amino-6-(2-hydroxyphenyl)pyridazin-4-yl]-3,8-diazabicyclo[3.2.1]octan-8-yl]phenyl]methyl]piperidine-4-carbonyl]-4-piperidyl]anilino]piperidine-2,6-dione], the DC50 was determined as 9 nM and the maximal effect (Emax) is 52%.

As to `Nc1nnc(-c2ccccc2O)cc1N1CC2CCC(C1)N2c1cccc(OCCN2CCN(C(=O)N3CCN(c4ccc5c(c4)C(=O)N(C4CCC(=O)NC4=O)C5=O)CC3)CC2)c1` (racemic) [Example 49, rac-5-[4-[4-[2-[3-[3-[3-amino-6-(2-hydroxyphenyl)pyridazin-4-yl]-3,8-diazabicyclo[3.2.1]octan-8-yl]phenoxy]ethyl]piperazine-1-carbonyl]piperazin-1-yl]-2-(2,6-dioxo-3-piperidyl)isoindoline-1,3-dione], the DC50 came to 4 nM and the Emax came out at 39%.

Turning to `Nc1nnc(-c2ccccc2O)cc1N1CC(Oc2cccc(CN3CCN(C(=O)CCC4CCN(c5ccc6c(c5)C(=O)N(C5CCC(=O)NC5=O)C6=O)CC4)CC3)c2)C1` (racemic) [Example 154, rac-5-[4-[3-[4-[[3-[1-[3-amino-6-(2-hydroxyphenyl)pyridazin-4-yl]azetidin-3-yl]oxyphenyl]methyl]piperazin-1-yl]-3-oxo-propyl]-1-piperidyl]-2-(2,6-dioxo-3-piperidyl)isoindoline-1,3-dione], the DC50 was determined as 12 nM and the maximum response (Emax) was found to be 16%.

Turning to `Nc1nnc(-c2ccccc2O)cc1N1CCN(c2cccc(OCCN3CCN(C(=O)CCCCCCNc4cccc5c4C(=O)N(C4CCC(=O)NC4=O)C5=O)CC3)c2)C2(CC2)C1` (stereo not drawn) [Example 5, 4-[[7-[4-[2-[3-[7-[3-amino-6-(2-hydroxyphenyl)pyridazin-4-yl]-4,7-diazaspiro[2.5]octan-4-yl]phenoxy]ethyl]piperazin-1-yl]-7-oxo-heptyl]amino]-2-(2,6-dioxo-3-piperidyl)isoindoline-1,3-dione], the DC50 stood at 66 nM and the Emax was found to be 60%.

On to `Nc1nnc(-c2ccccc2O)cc1N1CC2CCC(C1)N2c1cccc(CN2CCN(C(=O)CCC3CCN(c4ccc5c(c4)C(=O)N(C4CCC(=O)NC4=O)C5=O)CC3)CC2)c1` (racemic) [Example 47, rac-5-[4-[3-[4-[[3-[3-[3-Amino-6-(2-hydroxyphenyl)pyridazin-4-yl]-3,8-diazabicyclo[3.2.1]octan-8-yl]phenyl]methyl]piperazin-1-yl]-3-oxo-propyl]-1-piperidyl]-2-(2,6-dioxo-3-piperidyl)isoindoline-1,3-dione], for which the DC50 was determined as 17 nM and the Emax worked out at 42%.

Consider `Nc1nnc(-c2ccccc2O)cc1N1CCC(C(=O)N2CCC3(CC2)CN(C(=O)CC2CCN(c4ccc5c(c4)C(=O)N(C4CCC(=O)NC4=O)C5=O)CC2)CCO3)(c2ccccc2)CC1` (stereo not drawn) [Example 168, 5-(4-(2-(9-(1-(3-amino-6-(2-hydroxyphenyl)pyridazin-4-yl)-4-phenylpiperidine-4-carbonyl)-1-oxa-4,9-diazaspiro[5.5]undecan-4-yl)-2-oxoethyl)piperidin-1-yl)-2-(2,6-dioxopiperidin-3-yl)isoindoline-1,3-dione], for which the DC50 came to 111 nM and the Emax stood at 60%.

With `Nc1nnc(-c2ccccc2O)cc1N1CCC(C(=O)N2CCC(C(=O)N3CCC(c4ccc(C5CCC(=O)NC5=O)cc4)CC3)CC2)(c2ccccc2)CC1` (stereo not drawn) [Example 175, 3-(4-(1-(1-(1-(3-amino-6-(2-hydroxyphenyl)pyridazin-4-yl)-4-phenylpiperidine-4-carbonyl)piperidine-4-carbonyl)piperidin-4-yl)phenyl)piperidine-2,6-dione], the DC50 worked out at 42 nM and the Emax is 47%.

As for `Nc1nnc(-c2ccccc2O)cc1N1CC2CCC(C1)N2c1cccc(OCCN2CCN(C(=O)N3CCC(c4ccc(NC5CCC(=O)NC5=O)cc4)CC3)CC2)c1` (racemic) [Example 80, rac-3-[4-[1-[4-[2-[3-[3-[3-amino-6-(2-hydroxyphenyl)pyridazin-4-yl]-3,8-diazabicyclo[3.2.1]octan-8-yl]phenoxy]ethyl]piperazine-1-carbonyl]-4-piperidyl]anilino]piperidine-2,6-dione], the DC50 is 11 nM and the maximal response (Emax) came to 51%.

`Nc1nnc(-c2ccccc2O)cc1N1CC2CCC(C1)N2c1cccc(OCCN2CCN(C(=O)COc3ccc4c(c3)C(=O)N(C3CCC(=O)NC3=O)C4=O)CC2)c1` (racemic) [Example 99, rac-5-[2-[4-[2-[3-[3-[3-amino-6-(2-hydroxyphenyl)pyridazin-4-yl]-3,8-diazabicyclo[3.2.1]octan-8-yl]phenoxy]ethyl]piperazin-1-yl]-2-oxo-ethoxy]-2-(2,6-dioxo-3-piperidyl)isoindoline-1,3-dione]: the DC50 was determined as 31 nM and the Emax was determined as 51%.
